Legend:
TF-VIIa = molecular target: T1, TF-VIIa (Homo sapiens, UniProt P08709); assay: TF-VIIa Assay; format: biochemical; settings: for IC50 or % Inhibition TF-VIIa (30 µM): % inhibition at 30 µM (cells with % or %@30, bare 0); for IC50: cells printed as bare numbers (IC50), read-out: IC50 or % Inhibition TF-VIIa (30 µM)
T1 construct: An extrinsic pathway is initiated by the conversion of coagulation factor VII to VIIa by Xa; purchased American Diagnostica, Greenwich CT; Soluble TF was made in house in E. coli

Human factor Xa = molecular target: T2, Human factor Xa (Homo sapiens, UniProt P00742); assay: Xa Assay; format: biochemical; settings: % inhibition at 30 µM (cells with % or %@30, bare 0)
T2 construct: leads from XII to XIIa to XIa to IXa and to the conversion of X to Xa; purchased Enzyme Research Laboratories, South Bend IN

Trypsin = Trypsin (Sus scrofa, UniProt P00761); assay: Trypsin Assay; settings: for IC50 or % Inhibition Trpysin II (30 uM): % inhibition at 30 uM (cells with % or %@30, bare 0); for IC50: read-out: IC50 or % Inhibition Trpysin II (30 uM), cells printed as bare numbers (IC50)
Sequence of Trypsin (P00761 9-231): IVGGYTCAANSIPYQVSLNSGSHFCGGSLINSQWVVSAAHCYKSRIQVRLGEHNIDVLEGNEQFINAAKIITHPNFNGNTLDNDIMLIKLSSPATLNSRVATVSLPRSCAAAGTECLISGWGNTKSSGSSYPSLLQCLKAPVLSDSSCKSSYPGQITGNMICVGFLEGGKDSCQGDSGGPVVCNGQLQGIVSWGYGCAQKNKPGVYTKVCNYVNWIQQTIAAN

T1 sequence (P08709 213-466 limits assumed): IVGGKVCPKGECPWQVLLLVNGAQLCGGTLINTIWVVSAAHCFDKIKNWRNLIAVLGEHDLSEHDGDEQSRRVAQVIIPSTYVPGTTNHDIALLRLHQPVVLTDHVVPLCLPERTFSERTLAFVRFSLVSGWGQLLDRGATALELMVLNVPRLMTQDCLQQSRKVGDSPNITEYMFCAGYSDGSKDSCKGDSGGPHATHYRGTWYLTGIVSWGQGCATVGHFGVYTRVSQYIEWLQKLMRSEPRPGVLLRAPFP
T1 sequence (P08709 61-212 limits assumed): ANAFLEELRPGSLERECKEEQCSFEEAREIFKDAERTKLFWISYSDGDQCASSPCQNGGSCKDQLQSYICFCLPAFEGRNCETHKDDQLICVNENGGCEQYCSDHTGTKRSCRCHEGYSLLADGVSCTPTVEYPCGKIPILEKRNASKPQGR
T1 sequence (P13726 33-251 partner limits assumed): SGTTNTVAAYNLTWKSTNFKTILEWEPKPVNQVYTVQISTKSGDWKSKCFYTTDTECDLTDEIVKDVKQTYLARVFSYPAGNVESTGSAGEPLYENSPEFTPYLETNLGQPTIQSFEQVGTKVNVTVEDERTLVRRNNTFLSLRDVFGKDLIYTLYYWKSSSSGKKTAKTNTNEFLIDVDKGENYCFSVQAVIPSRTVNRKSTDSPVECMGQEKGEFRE
T2 sequence (P00742 235-488 limits assumed): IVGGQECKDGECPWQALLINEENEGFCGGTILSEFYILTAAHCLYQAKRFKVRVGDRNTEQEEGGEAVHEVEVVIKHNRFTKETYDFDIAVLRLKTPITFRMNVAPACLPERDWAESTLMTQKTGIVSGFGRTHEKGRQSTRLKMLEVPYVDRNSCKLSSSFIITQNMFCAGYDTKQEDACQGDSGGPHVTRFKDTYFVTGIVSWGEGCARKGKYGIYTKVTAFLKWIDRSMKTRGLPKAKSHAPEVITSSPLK
T2 sequence (P00742 41-179 limits assumed): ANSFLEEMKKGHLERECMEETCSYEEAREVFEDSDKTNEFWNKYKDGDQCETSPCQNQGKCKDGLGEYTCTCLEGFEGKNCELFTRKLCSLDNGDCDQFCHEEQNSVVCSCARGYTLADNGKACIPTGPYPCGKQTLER

IC50 or % Inhibition TF-VIIa (30 µM) (TF-VIIa) | IC50 or % Inhibition Factor Xa (30 µM) (Human factor Xa) | IC50 or % Inhibition Trpysin II (30 uM) (Trypsin) | IC50 (TF-VIIa) [µM] | IC50 (Trypsin) [µM] | SMILES
12% | 16% |  |  |  | N=C(N)c1ccc(CNC(=O)Cn2c(-c3ccc(-c4ccccc4)cc3)c(Cl)nc(NCc3ccncc3)c2=O)cc1 [1471-67]
10% | 12% |  |  |  | N=C(N)c1ccc(CNC(=O)Cn2c(-c3ccc(-c4ccccc4)cc3)c(Cl)nc(NCCc3cccc(Cl)c3)c2=O)cc1 [1471-70]
6% | 0% |  |  |  | N=C(N)c1ccc(CNC(=O)Cn2c(-c3ccc(-c4ccccc4)cc3)c(Cl)nc(NCCc3ccccc3)c2=O)cc1 [1471-71]
15% | 22% |  |  |  | N=C(N)c1ccc(CNC(=O)Cn2c(-c3ccc(-c4ccccc4)cc3)c(Cl)nc(NCCc3cccnc3)c2=O)cc1 [1471-72]
7% | 1% |  |  |  | N=C(N)c1ccc(CNC(=O)Cn2c(-c3ccccc3)c(Cl)nc(NC3Cc4ccccc4C3)c2=O)cc1 [1507-08]
0% | 15% | 25%@30 |  |  | N=C(N)c1ccc(CNC(=O)Cn2c(-c3ccccc3)c(Cl)nc(NCc3ccccn3)c2=O)cc1 [1507-24]
48% | 17% |  |  |  | N=C(N)c1ccc(CNC(=O)Cn2c(-c3ccccc3)c(Cl)nc(NCC(F)(F)F)c2=O)cc1 [1507-41]
47% | 4% |  |  |  | N=C(N)c1ccc(CNC(=O)Cn2c(-c3ccccc3)c(Cl)nc(NCc3cc(F)cc(C(F)(F)F)c3)c2=O)cc1 [1512-29]
43% | 14% |  |  |  | Cc1cccc(Cl)c1CNc1nc(Cl)c(-c2ccccc2)n(CC(=O)NCc2ccc(C(=N)N)cc2)c1=O [1512-31]
40% | 3% |  |  |  | N=C(N)c1ccc(CNC(=O)Cn2c(-c3ccccc3)c(Cl)nc(NCc3cccc(OC(F)(F)F)c3)c2=O)cc1 [1512-40]
43% | 6% |  |  |  | N=C(N)c1ccc(CNC(=O)Cn2c(-c3ccccc3)c(Cl)nc(NCc3c(F)cccc3C(F)(F)F)c2=O)cc1 [1512-44]
27% | 11% |  |  |  | Cc1cc(Cl)cc(Cl)c1CNc1nc(Cl)c(-c2ccccc2)n(CC(=O)NCc2ccc(C(=N)N)cc2)c1=O [1512-45]
33% | 0% |  |  |  | CCCCNc1nc(Cl)c(-c2ccccc2)n(CC(=O)NCc2ccc(C(=N)N)cc2)c1=O [1517-35]
25% | 0% | 43% |  |  | N=C(N)c1ccc(CNC(=O)Cn2c(-c3ccccc3)c(Cl)nc(NCC3CC3)c2=O)cc1 [1517-43]

Second part, the compound before the results:

SMILES | IC50 or % Inhibition TF-VIIa (30 µM) (TF-VIIa) | IC50 or % Inhibition Factor Xa (30 µM) (Human factor Xa) | IC50 or % Inhibition Trpysin II (30 uM) (Trypsin) | IC50 (TF-VIIa) [µM] | IC50 (Trypsin) [µM]
N=C(N)c1ccc(CNC(=O)C(Cc2ccccc2)n2c(-c3ccccc3)c(Cl)nc(NC3CCC3)c2=O)cc1 (stereo not drawn) [1517-08] | 43% | 0% |  |  | 
N=C(N)c1ccc(CNC(=O)C(Cc2ccccc2)n2c(-c3ccccc3)c(Cl)nc(NCCc3ccccc3)c2=O)cc1 (stereo not drawn) [1517-14] | 30% | 0% |  |  | 
N=C(N)c1ccc(CNC(=O)C(Cc2ccccc2)n2c(-c3ccccc3)c(Cl)nc(NCCc3cccc(Cl)c3)c2=O)cc1 (stereo not drawn) [1517-20] | 22% | 0% |  |  | 
Nc1ccc(CNC(=O)Cn2c(Cc3ccccc3)c(Cl)nc(NCCc3ccccc3)c2=O)cn1 [Example 9] |  |  |  | > 30 | > 30
Nc1ccc(CNC(=O)Cn2c(CCc3ccccc3)c(Cl)nc(NCCc3ccccc3)c2=O)cn1 [Example 10, 3-(2-Phenylethylamino)-5-chloro-6-phenethyl-1-(2-amino-5-methylcarboxamidomethylpyridinyl)pyrazinone] |  |  |  | > 30 | > 30
N=C(N)NCC#CCNC(=O)Cn1c(-c2ccccc2)cnc(NCCc2ccccc2)c1=O [Example 36] | 5% | 0% | 30% |  | 
CC(C)Nc1nc(Cl)c(-c2cccc([N+](=O)[O-])c2)n(CC(=O)NCc2ccc(C(N)=NO)cc2)c1=O [Example 61] | 1% | 0% | 10% |  | 
CC(=O)Nc1cccc(-c2c(Cl)nc(NC(C)C)c(=O)n2CC(=O)NCCc2ccc(C(=N)N)cc2)c1 [Example 68] | 32% | 6% |  |  | 
Nc1cccc(-c2c(Cl)nc(NC3CCC3)c(=O)n2CC(=O)NCCc2ccccc2)c1 [compound 89] | 5%@30 | 5%@30 | 9%@30 |  | 
Nc1cccc(-c2c(Cl)nc(NC3CCC3)c(=O)n2CC(=O)NCc2ccccc2)c1 [compound 99] | 6%@30 | 8%@30 | 7%@30 |  | 
